Source: US9586968B2, “Bicycloamine-substituted-N-benzenesulfonamide compounds with selective activity in voltage-gated sodium channels” (Merck Sharp & Dohme Corp., priority 2013, dated 2017)
pIC50: −log10 of the molar value.

Legend:
human Nav1.7 = target: T1, human Nav1.7 (Homo sapiens, UniProt Q15858); test: PatchXpress automated patch-clamp, inactivated state block of Nav1.7; assay type: cell-based; details: channels stably expressed in HEK 293 cells, 22° C., read-out: potency for the Nav 1.7 sodium ion channel (as measured by PatchXpress)
T1 construct: expressed in transfected cells
Protocol: (§1) Compounds were tested on human Nav1.7 and Nav1.5 channels stably expressed in HEK 293 cells. Activity toward Nav 1.7 and Nav 1.5 channels was assessed using the following assay methodology.
(§2) Sodium Current Measurements on the PatchXpress 7000®:
(§3) To measure inactivated state block of sodium channels, test compounds were characterized in an automated PatchXpress® assay (Molecular Devices) using a double-pulse protocol on human Nav1.7 and Nav1.5 channels stably expressed in HEK 293 cells. Cells were held at a potential 20 mV negative to V0.5 inact. An 8000 ms pre-pulse 7 mV positive to V0.5 inact was given followed by a hyperpolarizing 2 ms pulse to −120 mV and a 20 ms test pulse to −20 mV. Protocol was applied to cells in the absence, presence of compound and after washout. The temperature of PatchXpress instruments was maintained at 22° C. The following recording solutions were used. Internal solution (mM): 30 CsCl, 5 HEPES, 10 EGTA, 120 CsF, 5 NaF, 2 MgCl2. External solution (mM): 120 NMDG, 40 NaCl, 1 KCl, 0.5 MgCl2, 5 HEPES, 2.7 CaCl2.
(§4) For all electrophysiology experiments, offline analysis was used to correct for current rundown and to determine percent inhibition as a function of drug concentration. IC50 values were determined by fitting to the Hill equation.

human Nav1.5 = target: T2, human Nav1.5 (Homo sapiens, UniProt Q14524); test: PatchXpress automated patch-clamp, inactivated state block of Nav1.5 (selectivity); assay type: cell-based; details: determined by PatchXpress measurement, HEK 293 cells
T2 construct: expressed in transfected cells
Protocol: as §1, §2, §3, §4

T1 sequence (Q15858 whole entry): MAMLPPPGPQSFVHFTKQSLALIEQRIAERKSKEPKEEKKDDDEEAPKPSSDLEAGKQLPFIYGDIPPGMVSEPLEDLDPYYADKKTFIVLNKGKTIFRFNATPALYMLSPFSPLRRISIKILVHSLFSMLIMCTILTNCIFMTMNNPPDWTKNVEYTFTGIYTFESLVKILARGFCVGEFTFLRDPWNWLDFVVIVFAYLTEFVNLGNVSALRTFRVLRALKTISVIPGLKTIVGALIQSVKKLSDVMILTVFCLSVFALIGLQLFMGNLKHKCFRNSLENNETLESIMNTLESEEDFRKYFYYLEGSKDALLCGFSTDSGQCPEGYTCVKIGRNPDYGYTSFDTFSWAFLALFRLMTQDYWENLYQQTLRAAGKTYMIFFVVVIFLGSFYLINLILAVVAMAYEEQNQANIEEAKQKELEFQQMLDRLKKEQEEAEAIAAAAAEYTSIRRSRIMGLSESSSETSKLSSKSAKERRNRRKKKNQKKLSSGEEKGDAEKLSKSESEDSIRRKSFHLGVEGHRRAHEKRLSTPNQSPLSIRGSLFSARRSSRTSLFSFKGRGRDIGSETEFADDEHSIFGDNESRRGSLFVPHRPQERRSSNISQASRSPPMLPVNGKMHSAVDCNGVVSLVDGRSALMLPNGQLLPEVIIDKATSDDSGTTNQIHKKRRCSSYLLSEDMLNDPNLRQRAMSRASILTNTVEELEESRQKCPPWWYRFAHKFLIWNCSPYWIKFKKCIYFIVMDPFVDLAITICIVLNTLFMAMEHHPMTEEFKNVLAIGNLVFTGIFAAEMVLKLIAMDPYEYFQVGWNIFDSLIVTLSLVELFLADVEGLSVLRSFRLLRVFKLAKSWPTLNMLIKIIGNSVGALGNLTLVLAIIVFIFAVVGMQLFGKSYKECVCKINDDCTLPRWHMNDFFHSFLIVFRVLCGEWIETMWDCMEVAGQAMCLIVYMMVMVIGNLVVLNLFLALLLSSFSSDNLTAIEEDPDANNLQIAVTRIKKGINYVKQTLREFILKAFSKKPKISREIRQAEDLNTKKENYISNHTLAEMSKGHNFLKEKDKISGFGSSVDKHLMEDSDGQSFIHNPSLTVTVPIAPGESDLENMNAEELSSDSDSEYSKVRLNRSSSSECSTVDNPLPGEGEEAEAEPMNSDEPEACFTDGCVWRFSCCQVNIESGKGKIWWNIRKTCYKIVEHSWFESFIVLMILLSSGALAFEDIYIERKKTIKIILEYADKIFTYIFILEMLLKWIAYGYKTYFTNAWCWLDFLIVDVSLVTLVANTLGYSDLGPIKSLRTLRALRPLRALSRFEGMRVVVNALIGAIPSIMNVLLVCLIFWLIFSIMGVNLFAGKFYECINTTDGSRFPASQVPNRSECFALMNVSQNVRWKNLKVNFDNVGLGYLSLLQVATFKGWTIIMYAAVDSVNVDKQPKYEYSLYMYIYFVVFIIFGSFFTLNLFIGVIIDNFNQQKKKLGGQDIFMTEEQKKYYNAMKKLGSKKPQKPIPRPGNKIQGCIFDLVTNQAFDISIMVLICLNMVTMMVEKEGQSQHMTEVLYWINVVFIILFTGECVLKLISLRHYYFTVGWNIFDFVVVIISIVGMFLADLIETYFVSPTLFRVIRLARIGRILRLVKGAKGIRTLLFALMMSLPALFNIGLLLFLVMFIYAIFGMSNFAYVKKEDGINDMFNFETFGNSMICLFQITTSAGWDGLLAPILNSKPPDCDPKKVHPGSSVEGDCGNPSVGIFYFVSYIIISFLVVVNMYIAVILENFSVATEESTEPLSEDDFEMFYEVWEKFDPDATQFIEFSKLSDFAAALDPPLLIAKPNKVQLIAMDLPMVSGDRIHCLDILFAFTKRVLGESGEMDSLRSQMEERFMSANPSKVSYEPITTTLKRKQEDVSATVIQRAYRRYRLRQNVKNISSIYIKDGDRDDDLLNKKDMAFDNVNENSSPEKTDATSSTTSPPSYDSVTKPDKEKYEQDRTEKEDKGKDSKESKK
T2 sequence (Q14524 whole entry): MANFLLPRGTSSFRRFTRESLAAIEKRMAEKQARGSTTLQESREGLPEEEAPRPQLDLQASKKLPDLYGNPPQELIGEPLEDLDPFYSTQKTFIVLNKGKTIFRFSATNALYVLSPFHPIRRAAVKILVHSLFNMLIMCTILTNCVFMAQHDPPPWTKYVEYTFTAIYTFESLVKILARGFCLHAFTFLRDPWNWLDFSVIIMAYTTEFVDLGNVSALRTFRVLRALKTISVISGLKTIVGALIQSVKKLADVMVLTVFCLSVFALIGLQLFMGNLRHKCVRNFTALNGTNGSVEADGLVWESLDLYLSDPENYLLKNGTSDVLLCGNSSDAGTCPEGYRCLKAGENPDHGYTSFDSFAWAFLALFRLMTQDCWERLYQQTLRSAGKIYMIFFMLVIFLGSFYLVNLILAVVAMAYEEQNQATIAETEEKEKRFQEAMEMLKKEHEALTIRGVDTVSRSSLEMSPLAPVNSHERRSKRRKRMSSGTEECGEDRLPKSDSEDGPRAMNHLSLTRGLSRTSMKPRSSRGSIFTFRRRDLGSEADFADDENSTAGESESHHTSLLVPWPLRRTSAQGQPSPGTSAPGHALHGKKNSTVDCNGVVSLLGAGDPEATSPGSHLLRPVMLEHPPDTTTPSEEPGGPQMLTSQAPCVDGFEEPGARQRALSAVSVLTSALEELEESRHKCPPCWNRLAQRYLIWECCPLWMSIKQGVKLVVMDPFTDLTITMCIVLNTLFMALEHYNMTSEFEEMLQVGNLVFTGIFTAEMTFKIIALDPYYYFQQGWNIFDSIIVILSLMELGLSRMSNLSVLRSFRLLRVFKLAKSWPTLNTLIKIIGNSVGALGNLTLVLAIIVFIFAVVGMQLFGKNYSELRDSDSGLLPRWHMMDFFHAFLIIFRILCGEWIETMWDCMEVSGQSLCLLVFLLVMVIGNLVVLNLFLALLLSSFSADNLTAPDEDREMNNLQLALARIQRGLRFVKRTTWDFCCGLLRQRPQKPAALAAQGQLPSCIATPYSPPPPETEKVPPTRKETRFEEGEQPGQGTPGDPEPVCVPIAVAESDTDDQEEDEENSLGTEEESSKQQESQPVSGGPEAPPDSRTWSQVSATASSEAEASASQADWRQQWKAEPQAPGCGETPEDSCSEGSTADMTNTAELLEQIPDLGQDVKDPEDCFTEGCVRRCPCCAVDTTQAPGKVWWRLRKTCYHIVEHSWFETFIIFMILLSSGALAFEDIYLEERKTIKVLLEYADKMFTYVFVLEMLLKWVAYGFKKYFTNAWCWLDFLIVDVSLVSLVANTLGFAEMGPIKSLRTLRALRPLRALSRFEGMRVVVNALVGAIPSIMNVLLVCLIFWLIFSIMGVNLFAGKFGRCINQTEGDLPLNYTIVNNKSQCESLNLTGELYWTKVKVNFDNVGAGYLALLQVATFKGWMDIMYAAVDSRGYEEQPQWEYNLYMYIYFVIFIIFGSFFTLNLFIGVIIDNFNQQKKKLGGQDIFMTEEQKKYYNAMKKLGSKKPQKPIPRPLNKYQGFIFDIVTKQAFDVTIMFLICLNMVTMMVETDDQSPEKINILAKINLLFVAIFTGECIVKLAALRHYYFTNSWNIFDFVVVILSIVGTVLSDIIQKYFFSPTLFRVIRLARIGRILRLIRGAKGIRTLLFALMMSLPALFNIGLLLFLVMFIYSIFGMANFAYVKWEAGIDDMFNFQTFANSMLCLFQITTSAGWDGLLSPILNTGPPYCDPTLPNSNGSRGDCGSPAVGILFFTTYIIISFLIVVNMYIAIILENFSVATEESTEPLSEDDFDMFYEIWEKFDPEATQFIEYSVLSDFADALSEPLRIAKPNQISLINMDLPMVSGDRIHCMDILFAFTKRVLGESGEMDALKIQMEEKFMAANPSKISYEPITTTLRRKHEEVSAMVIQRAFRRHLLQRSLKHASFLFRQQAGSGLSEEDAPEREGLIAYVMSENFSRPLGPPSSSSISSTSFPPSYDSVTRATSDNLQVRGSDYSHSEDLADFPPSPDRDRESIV

pIC50 (human Nav1.7) | Compound | ratio of Nav1.7 potency:Nav 1.5 potency (human Nav1.5)
8.30 | CC1CN2CCCC2(CNc2ccc(S(=O)(=O)Nc3nccs3)cc2Cl)C1 [Ex4-11, 3-chloro-4-((((2S/7aR and 2R,7aS)-2-methylhexahydro-1H-pyrrolizin-7a-yl)methyl)amino)-N-(thiazol-2-yl)benzenesulfonamide] | 7180
7.52 | CC1CCC2(CNc3ccc(S(=O)(=O)Nc4ncc(F)s4)cc3Cl)CCCN12 (single isomer, unassigned) [Ex11-12-B, 3-chloro-N-(5-fluorothiazol-2-yl)-4-((((3R,7aR or 3S,7aS)-3-methylhexahydro-1H-pyrrolizin-7a-yl)methyl)-amino)benzene-sulfonamide] | 1017
6.73 | O=S(=O)(Nc1nccs1)c1cc(Cl)c(NCC23CCCCN2CCC3)cc1F (single isomer, unassigned) [Ex17-7-B, (R or S) 5-chloro-2-fluoro-4-(((octahydroindolizin-8a-yl)methyl)amino)-N-(thiazol-2-yl)benzenesulfonamide] | 193
7.39 | O=S(=O)(Nc1nccs1)c1cc(Cl)c(NCC23CCCN2CCC3)cc1Br [Ex12-5, 2-bromo-5-chloro-4-(((hexahydro-1H-pyrrolizin-7a-yl)methyl)amino)-N-(thiazol-2-yl)benzenesulfonamide] | 288
7.32 | O=S(=O)(Nc1nccs1)c1ccc(NCC23CCCN2CCC3)c(Cl)c1 [Ex1-14, 3-chloro-4-(((hexahydro-1H-pyrrolizin-7a-yl)methyl)amino)-N-(thiazol-2-yl)benzenesulfonamide] | 337
7.29 | COc1ccc([C@@H]2CN3CCC[C@@]3(CNc3cc(F)c(S(=O)(=O)Nc4nccs4)cc3Cl)C2)cc1 (single isomer, unassigned) [Ex16-12-A] | 348
7.49 | O=S(=O)(Nc1nccs1)c1cc(Cl)c(NC[C@@]23CCCN2CC2(C3)OCCO2)cc1F (single isomer, unassigned) [Ex10-7-B] | 935
7.46 | N#Cc1cc(S(=O)(=O)Nc2ncc(Cl)s2)c(F)cc1NCC12CCCN1CCC2 [Ex1-11, N-(5-chloro-1,3-thiazol-2-yl)-5-cyano-2-fluoro-4-[(tetrahydro-1H-pyrrolizin-7a(5H)-ylmethyl)amino]benzene-sulfonamide] | 469
7.24 | O=S(=O)(Nc1ncc(F)s1)c1cc(Cl)c(NCC23CCCN2CC(F)C3)cc1F (single isomer, unassigned) [Ex9-10-B, 5-chloro-2-fluoro-4-((((2S,7aR or 2R,7aS)-2-fluoro-hexahydro-1H-pyrrolizin-7a-yl)-methyl)amino)-N-(5-fluorothiazol-2-yl)-benzenesulfonamide] | 122
8.15 | O=S(=O)(Nc1ncc(F)s1)c1ccc(NCC23CCCN2CC2(CC2)C3)c(C(F)(F)F)c1 (single isomer, unassigned) [Ex13-12-B, (R or S)-N-(5-fluorothiazol-2-yl)-4-(((hexahydrospiro-[cyclopropane-1,2′-pyrrolizin]-7a′-yl)methyl)-amino)-3-(trifluoromethyl)-benzenesulfonamide] | 3240
8.30 | CCc1cc(S(=O)(=O)Nc2ncc(F)s2)c(F)cc1NCC12CCCN1CCC2 [Ex18-8, 5-ethyl-2-fluoro-N-(5-fluorothiazol-2-yl)-4-(((hexahydro-1H-pyrrolizin-7a-yl)-methyl)amino)-benzenesulfonamide] | 2595
7.37 | O=S(=O)(Nc1ncc(Br)s1)c1cc(Cl)c(NCC23CCCN2CCC3)cc1F [Ex1-13, N-(5-bromothiazol-2-yl)-5-chloro-2-fluoro-4-(((hexahydro-1H-pyrrolizin-7a-yl)methyl)amino)benzene-sulfonamide] | 1507
7.46 | CC1(C)CN2CCCC2(CNc2cc(F)c(S(=O)(=O)Nc3ncc(F)s3)cc2Cl)C1 (single isomer, unassigned) [Ex8-21-A, (R or S) 5-chloro-4-(((2,2-dimethylhexahydro-1H-pyrrolizin-7a-yl)methyl)amino)-2-fluoro-N-(5-fluorothiazol-2-yl)benzenesulfonamide] | 851

More lines, now with the values behind:

Compound | pIC50 (human Nav1.7) | ratio of Nav1.7 potency:Nav 1.5 potency (human Nav1.5)
CC1(C)CN2CCCC2(CNc2ccc(S(=O)(=O)Nc3nccs3)cc2C(F)(F)F)C1 (single isomer, unassigned) [Ex8-23-B, (S or R) 4-(((2,2-dimethylhexahydro-1H-pyrrolizin-7a-yl)methyl)amino)-N-(thiazol-2-yl)-3-(trifluoromethyl)-benzenesulfonamide] | 7.51 | 981
O=S(=O)(Nc1ncc(F)s1)c1ccc(NCC23CCCN2CC(F)C3)c(C(F)(F)F)c1 (single isomer, unassigned) [Ex9-12-A, 4-((((2R,7aS or 2S,7aR)-2-fluoro-hexahydro-1H-pyrrolizin-7a-yl)-methyl)amino)-N-(5-fluorothiazol-2-yl)-3-(trifluoromethyl)-benzenesulfonamide] | 7.05 | 338
O=S(=O)(Nc1nccs1)c1cc(Cl)c(NC[C@]23CCCN2CC2(CC2)C3)cc1F (single isomer, unassigned) [Ex13-10-B] | 7.80 | 406
CCc1cc(S(=O)(=O)Nc2nccs2)c(F)cc1NCC12CCCN1CC(C)(C)C2 (single isomer, unassigned) [Ex18-9-B, (R or S)-4-(((2,2-dimethylhexahydro-1H-pyrrolizin-7a-yl)methyl)-amino)-5-ethyl-2-fluoro-N-(thiazol-2-yl)-benzenesulfonamide] | 7.80 | 1870
CC1(C)CN2CCCC2(CNc2cc(F)c(S(=O)(=O)Nc3ncc(F)s3)cc2Cl)C1 (single isomer, unassigned) [Ex8-21-B, (S or R) 5-chloro-4-(((2,2-dimethylhexahydro-1H-pyrrolizin-7a-yl)methyl)-amino)-2-fluoro-N-(5-fluorothiazol-2-yl)-benzenesulfonamide] | 7.64 | 1290
O=S(=O)(Nc1ncc(F)s1)c1cc(Cl)c(NCC23CCCN2CC(F)C3)cc1F (single isomer, unassigned) [Ex9-10-A, 5-chloro-2-fluoro-4-((((2R,7aS or 2S,7aR)-2-fluoro-hexahydro-1H-pyrrolizin-7a-yl)-methyl)amino)-N-(5-fluorothiazol-2-yl)-benzenesulfonamide] | 6.83 | 137
CC1(C)CN2CCCC2(CNc2cc(F)c(S(=O)(=O)Nc3ncc(Cl)s3)cc2Cl)C1 (single isomer, unassigned) [Ex8-19-B, (S or R) 5-chloro-N-(5-chlorothiazol-2-yl)-4-(((2,2-dimethylhexahydro-1H-pyrrolizin-7a-yl)methyl)amino)-2-fluorobenzenesulfonamide] | 6.87 | 265
CC(Nc1cc(F)c(S(=O)(=O)Nc2nccs2)cc1Cl)C12CCCN1CCC2 (single isomer, unassigned) [Ex5-9, 5-chloro-2-fluoro-4-{[(1S or R)-1-(tetrahydro-1H-pyrrolizin-7a(5H)-yl)ethyl]amino}-N-(1,3-thiazol-2-yl)benzenesulfonamide] | 5.96 | 26
O=S(=O)(Nc1nccs1)c1cc(F)c(NCC23CCCN2CCC3)cc1Cl [Ex1-18, 2-chloro-5-fluoro-4-(((hexahydro-1H-pyrrolizin-7a-yl)methyl)amino)-N-(thiazol-2-yl)benzenesulfonamide] | 6.89 | 462
CC1CCC2(CNc3ccc(S(=O)(=O)Nc4nccs4)cc3C(F)(F)F)CCCN12 (single isomer, unassigned) [Ex11-10-B, 4-((((3R,7aR or 3S,7aS)-3-methylhexahydro-1H-pyrrolizin-7a-yl)methyl)-amino)-N-(thiazol-2-yl)-3-(trifluoromethyl)-benzenesulfonamide] | 7.40 | 755
Cc1cc(NCC23CCCN2CCC3)c(Cl)cc1S(=O)(=O)Nc1nccs1 [Ex12-7, 5-chloro-4-(((hexahydro-1H-pyrrolizin-7a-yl)methyl)amino)-2-methyl-N-(thiazol-2-yl)benzenesulfonamide] | 7.59 | 163
COc1ccc(C[C@H]2CN3CCC[C@@]3(CNc3cc(F)c(S(=O)(=O)Nc4nccs4)cc3Cl)C2)cc1 (single isomer, unassigned) [Ex15-10-A] | 8.70 | 918
CC1CN2CCCC2(CNc2cc(F)c(S(=O)(=O)Nc3nccs3)cc2Cl)C1 [Ex4-9, 5-chloro-2-fluoro-4-{[((2S,7aR and 2R,7aS)-2-methyl-tetrahydro-1H-pyrrolizin-7a(5H)-yl)methyl]amino}-N-(1,3-thiazol-2-yl)-benzenesulfonamide] | 8.05 | 
